Patent publication US5952366A, “Alkyl ether analogs of chlorins having an N-substituted imide ring” (Health Research, Inc., priority 1998, dated 1999)

Legend:
[1] = test system: Radiation induced fibrosarcoma (RIF) tumors; assay: In vivo tumor response (photodynamic therapy, RIF tumors in C3H mice); conditions: for Tumor Response (%): 705 nm, 135 J/cm^2, 24 h post injection
Protocol: Radiation induced fibrosarcoma (RIF) tumors, were implanted subcutanaceously into the axilla of 5-7 week old female C3H mice. When tumors grew to about 5 mm in diameter, the mice were injected with various doses of the photosensitizers. The mice (6 mice per group) were restrained in aluminum holders and each tumor illuminated with 135 J/cm^2 of light from a laser tuned at the longest wavelength absorption maximum of the photosensitizers at 705 nm. The percentage of short term control was recorded daily.
*Six mice/group (RIF tumor). 1.0 μmol/kg. 705 nm, 135J/cm^2 (24 h

[2] = human, in vivo; cited from earlier work
[3] = 1.0 μmol/kg, days 1-2, six mice/group

Row | Compound | Tumor Response (%) ([1]; 1.0 μmol/kg, day 7) | Tumor Response (%) ([1]; 1.0 μmol/kg, day 14) | Tumor Response (%) ([1]; 1.0 μmol/kg, day 21) | Tumor Response (%) ([1]; 1.0 μmol/kg, day 30) | Tumor Response (%) ([1]; 1.0 μmol/kg, day 90) | Tumor Response (%) [1, 3] [%] | further results
1 | CCCCCCCOC(C)c1c(C)c2cc3nc(c4c5[nH]c(cc6nc(cc1[nH]2)C(C)=C6CC)c(C)c5C(=O)N(CCCCCC)C4=O)[C@@H](CCC(=O)OC)[C@@H]3C (stereo partly drawn) [R^1 = heptyl, R^2 = hexyl, heptyl ether analog of N-hexyl purpurin imide] | 100 | 100 | 100 | 100 | 83 | 100 | Tumor Response (%) ([1]; 0.25 μmol, day 7): 60%; Tumor Response (%) ([1]; 0.25 μmol, day 14): 20%; Tumor Response (%) ([1]; 0.25 μmol, day 21): 20%; Tumor Response (%) ([1]; 0.25 μmol, day 30): 20%; Tumor Response (%) ([1]; 0.25 μmol, day 90): 20%; Tumor Response (%) ([1]; 0.25 μmol, days 1-2): 100%; effectiveness in this series ([1]; dose of 1.0 μmol/kg): most effective
2 | CCCCCCOC(C)c1c(C)c2cc3nc(c4c5[nH]c(cc6nc(cc1[nH]2)C(C)=C6CC)c(C)c5C(=O)N(CCC)C4=O)[C@@H](CCC(=O)OC)[C@@H]3C (stereo partly drawn) [R^1 = hexyl, R^2 = propyl] | 83 | 83 | 50 | 33 | 33 | 100 | Tumor Response (%) ([1]; 0.5 μmol, day 7): 66%; Tumor Response (%) ([1]; 0.5 μmol, day 14): 33%; Tumor Response (%) ([1]; 0.5 μmol, day 21): 17%; Tumor Response (%) ([1]; 0.5 μmol, day 30): 17%; Tumor Response (%) ([1]; 0.5 μmol, day 90): 17%; Tumor Response (%) ([1]; 0.5 μmol, days 1-2): 100%
3 | CCCOC(C)c1c(C)c2cc3nc(c4c5[nH]c(cc6nc(cc1[nH]2)C(C)=C6CC)c(C)c5C(=O)N(CCC)C4=O)[C@@H](CCC(=O)OC)[C@@H]3C (stereo partly drawn) [R^1 = propyl, R^2 = propyl] | 33 | 17 |  |  |  | 100 | 
4 | Photofrin |  |  |  |  |  |  | normal tissue clearance [2]: lacks rapid normal tissue clearance; skin photosensitization [2]: photosensitizes the skin
